Experiment [1] deals with S. aureus (ATCC 25923). It counts as cell-based, Staphylococcus aureus. The settings on record: S. aureus (ATCC25923); 5×10^5 CFU.ml^−1, Mueller-Hinton Broth, 37°C, 24 h, OD 595 nm, biological triplicates. How it is done: (§1) Susceptibility tests were performed using clinical isolates of Klebsiella pneumoniae carbapenemase (KPC 1410503) and methicillin-resistant S. aureus (MRSA 3730592). Tests were also performed with ATCC (American Type Culture Collection) isolates of K. pneumoniae (ATCC 13883) and S. aureus (ATCC 25923).
(§2) Two multidrug-resistant clinical isolates and two ATCC isolates were chosen to perform microbial susceptibility testing as models for studies with bacteria susceptible to antimicrobials found in the Gram-Positive and Gram-Negative groups of bacteria.
(§3) The broth microdilution method was performed according to the Clinical and Laboratory Standards Institute (CLSI) M07-A10 protocol to determine the Minimum Inhibitory Concentration (MIC; [Clinical Laboratory Standards Institute, 2015]). The assay was performed on 96-well microplates (TPP, United States), containing 5×10^5 CFU.ml^−1 of each tested bacterium per well and different peptide micromolar concentrations (Table 1) in a final volume of 100 μl of Mueller-Hinton Broth (MH). Negative control was represented by bacteria incubated in MH medium, while positive control was represented by culture incubated in MH medium with Amikacin. Plates were kept under agitation at 37°C in a BioTek spectrophotometer (PowerWaveTM HT Microplate Reader) with optical density (OD) readings at 595 nm every 30 min for 24 h. Inhibition results were analyzed using GraphPad Prism 8 software by comparing the OD from negative control wells (100%) to those containing peptides. All tests were performed in biological triplicates.

Experiment [2] concerns methicillin-resistant S. aureus (MRSA 3730592). It counts as cell-based, Staphylococcus aureus. The settings on record: Methicillin-Resistant S. aureus—MRSA clinical isolate 3730592; 5×10^5 CFU.ml^−1, Mueller-Hinton Broth, 37°C, 24 h, OD 595 nm, biological triplicates. The procedure:
as §1, §2, §3

Experiment [3] relates to Spodoptera frugiperda (SF21) cells. Put plainly: In vitro test against insect cells (MTT). Type of experiment: cell-based. The settings on record: 24 h. The procedure:
To evaluate the ability of the peptides to cause lysis and morphological changes in insect cells ([Dutra, 2019]; Patent: BR 102022 006138 6) as a first screening of the insecticidal activity of the peptides, in this work, the Spodoptera IPLB-SF-21AE _LVI-Cenargen cell line ([Vaughn et al., 1977]) was used and different concentrations of the peptides were added to the culture medium.
Cells were maintained at 27°C in TNMFH medium (Grace’s insect medium supplemented with lactalbumin hydrolyzate and yeastolate), supplemented with 10% (v/v) fetal bovine serum (Sigma-Aldrich; [Castro et al., 2006]).
Cell cultivation was carried out in 10 ml culture bottles, model K11-1050 25cm^2, with 5 ml of culture medium per bottle. For the assays, the SF21 cells were grown in TNMFH medium, added 10% (v/v) of bovine fetal serum, and distributed in plates of 96 wells at the concentration of 2×10^4 cells per well, after counting was performed in the Neubauer chamber. Cell suspension was distributed in a volume of 100 μl per well. Peptides were diluted in TNMFH medium and 100 μl of medium with peptide was added, obtaining concentrations of 10, 5, and 1 μM, reaching the volume of 200 μl at the final concentrations of reaction per well. Cells were placed in incubation at 27°C, for 24 h.
After 24 h, the cells were analyzed for their modifications, morphological alterations, turbidity of the medium, formation of clumps, and/or lysis in the presence of peptides, by observation under optical microscopy (Nikon Eclipse TS100) with 20× and 40× magnification. Characteristics that could represent cell death or cell dysfunction caused by the peptides were observed compared to control cells. Cells were evaluated by cell viability using the MTT test 3-[4,5-dimethylthiazole-2-yl]-2,5-diphenyltetrazolium bromide 0.5 mg.ml^−1 (Sigma-Aldrich). To perform the test, the cell culture medium was discarded, and we added 100 μl of new medium. Ten μl of MTT was added to each well and incubated for 4 h, with the plates protected from light. After 4 h, we added 100 μl of DMSO to each well to dissolve the formazan crystals, and the reading in the microplate reader ([Riss et al., 2016]) was then performed. The results were analyzed using GraphPad Prism 8 software, where a One-Way ANOVA statistical test was followed by Bonferroni’s multiple comparisons test.

Experiment [4] deals with Klebsiella pneumoniae carbapenemase (KPC 1410503). Type of experiment: cell-based. The note with it: K. pneumoniae carbapenemase—KPC clinical isolate 1410503; 5×10^5 CFU.ml^−1, Mueller-Hinton Broth, 37°C, 24 h, OD 595 nm, biological triplicates; NE = MIC value not found. How it is done: as §1, §2, §3
[5] abbreviates: lowest concentration tested (1 μM).

SMILES strings stand for the structures. Values after ≈ are worked out from the molar mass of the structure shown. Where a SMILES comes first, the peptide text is derived from it.

For `CC(C)C[C@H](NC(=O)[C@H](C)NC(=O)CNC(=O)[C@H](Cc1ccccc1)NC(=O)CN)C(=O)N[C@@H](Cc1ccccc1)C(=O)N[C@@H](CCCCN)C(=O)N[C@@H](CCCNC(=N)N)C(=O)N[C@@H](CC(C)C)C(=O)N[C@@H](C)C(=O)N[C@@H](CCCCN)C(=O)N[C@@H](CCCCN)C(=O)N[C@H](C(=O)N[C@@H](C)C(=O)N[C@@H](CCCCN)C(=O)N[C@H](C(=O)N[C@H](C(=O)N[C@@H](C)C(N)=O)C(C)C)[C@@H](C)O)C(C)C` [Peptide R3b] (H-GFGALFKRLAKKVAKTVA-NH2), the “Minimum inhibitory concentration (MIC)” value in experiment [1] and in experiment [2] was 67.21 µM (≈ 128 µg/mL) each time. Further, the “viable cells (SF21)” value in experiment [3] (10 μM) worked out at 14%. In addition, the “cell viability (SF21)” value in experiment [3] (5 and 1 μM) was “greater than 50%”.

Take `CC(C)C[C@H](NC(=O)[C@H](C)NC(=O)CNC(=O)[C@H](Cc1ccccc1)NC(=O)CN)C(=O)N[C@@H](Cc1ccccc1)C(=O)N[C@@H](CCCCN)C(=O)N[C@@H](Cc1ccccc1)C(=O)N[C@@H](CC(C)C)C(=O)N[C@@H](C)C(=O)N[C@@H](CCCCN)C(=O)N[C@@H](C)C(=O)N[C@H](C(=O)N[C@@H](C)C(=O)N[C@@H](CCCCN)C(=O)N[C@@H](C)C(=O)N[C@H](C(=O)N[C@@H](C)C(N)=O)C(C)C)C(C)C` [Peptide R6b] (H-GFGALFKFLAKAVAKAVA-NH2): the “Minimum inhibitory concentration (MIC)” value in experiment [1] and in experiment [2] was 17.7 µM (≈ 32 µg/mL) each time. For the same compound, in experiment [3] (setting [5]), the “cell viability (SF21)” value is on record as “below 50%”.

On to `CC(C)C[C@H](NC(=O)[C@H](C)NC(=O)CNC(=O)[C@H](Cc1ccccc1)NC(=O)CN)C(=O)N[C@@H](Cc1ccccc1)C(=O)N[C@@H](CCCCN)C(=O)N[C@@H](CCCNC(=N)N)C(=O)N[C@@H](CC(C)C)C(=O)N[C@@H](C)C(=O)N[C@@H](CCCCN)C(=O)N[C@@H](C)C(=O)N[C@H](C(=O)N[C@@H](C)C(=O)N[C@@H](CCCCN)C(=O)N[C@@H](C)C(=O)N[C@H](C(=O)N[C@@H](C)C(N)=O)C(C)C)C(C)C` [Peptide R8b] (H-GFGALFKRLAKAVAKAVA-NH2), for which the “Minimum inhibitory concentration (MIC)” value in experiment [4] was determined as 35.21 µM (≈ 64 µg/mL); in experiment [1], 17.60 µM (≈ 32 µg/mL); in experiment [2] it was 17.60 µM (≈ 32 µg/mL). In addition, the “cell viability (SF21)” value in experiment [3] (setting [5]) is “below 50%”.

On to `CC(C)C[C@H](NC(=O)[C@H](CCCNC(=N)N)NC(=O)[C@H](CCCCN)NC(=O)[C@H](Cc1ccccc1)NC(=O)[C@H](CC(C)C)NC(=O)[C@H](CCCCN)NC(=O)CNC(=O)[C@H](Cc1ccccc1)NC(=O)CN)C(=O)N[C@@H](C)C(=O)N[C@@H](CCCCN)C(=O)N[C@@H](C)C(=O)N[C@H](C(=O)N[C@@H](C)C(=O)N[C@@H](CCCCN)C(=O)N[C@@H](C)C(=O)N[C@H](C(=O)N[C@@H](C)C(N)=O)C(C)C)C(C)C` [Peptide R10b] (H-GFGKLFKRLAKAVAKAVA-NH2), for which the figures for the “Minimum inhibitory concentration (MIC)” value in experiment [4], in experiment [1] and in experiment [2] were 17.07 µM (≈ 32 µg/mL), 8.53 µM (≈ 16 µg/mL) and 8.53 µM (≈ 16 µg/mL), respectively. The “cell viability (SF21)” value in experiment [3] (setting [5]) is recorded as “below 50%”.

These data come from article PMC9433906, “Evaluation of the biotechnological potential of peptide Cupiennin 1a and analogs” (Frontiers in Microbiology, 2022).
